Reference: patent US10513521B2, “Compositions and methods for inhibiting BMP” (The Brigham and Women's Hospital, Inc., priority 2014, dated 2019)
Several values for one entry are separate records, joined by “and”; a condition that tells them apart may be missing. Equal entries are not always repeated.

How the values were obtained:
ALK1 = biological target: T1, ALK1 (Bos taurus, UniProt A4FUX2); assay: In-cell Western ALK1 assay (BAOEC cells, BMP9 as agonist); format: cell-based, Bovine; conditions: read-out: BMP9 ICW
T1 construct: The BAOEC cell line was employed for the measurement of ALK1 activity using BMP9 as the agonist; host or cells: BAOEC (bovine aortic endothelial cells)
T1 sequence (A4FUX2 23-503): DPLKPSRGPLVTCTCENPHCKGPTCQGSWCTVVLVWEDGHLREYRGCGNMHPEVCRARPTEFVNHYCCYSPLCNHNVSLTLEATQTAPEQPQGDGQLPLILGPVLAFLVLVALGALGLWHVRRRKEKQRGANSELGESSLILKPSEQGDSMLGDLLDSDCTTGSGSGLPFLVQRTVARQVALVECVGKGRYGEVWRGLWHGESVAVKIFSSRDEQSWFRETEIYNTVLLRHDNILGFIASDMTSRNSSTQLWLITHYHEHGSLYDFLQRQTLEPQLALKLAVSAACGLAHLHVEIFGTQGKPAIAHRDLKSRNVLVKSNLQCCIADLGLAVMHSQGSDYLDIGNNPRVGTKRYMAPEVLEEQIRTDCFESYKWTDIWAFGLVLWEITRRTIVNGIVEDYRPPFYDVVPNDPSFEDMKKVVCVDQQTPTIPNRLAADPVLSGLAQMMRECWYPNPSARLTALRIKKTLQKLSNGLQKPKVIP
Text: (§1) 3. In-Cell Western ALK1 and ALK2 Assays in 384-Well Plate Format.
(§2) We also optimized cell-based In-cell Western assays for measurements of ALK1 and ALK2 activities that were used to determine compound activities in these two kinases. The cell lines and agonists used were same as described in above cell-based HTRF ALK1 and ALK2 assays. The initial cell plating and compound treatment were also same. The main difference is the detection of phosphorylation status of SMAD1. In t-cell Western assay, the cells were fixed and phosphorylation status of SMAD1 was detected by the ELISA instead of using the HTRF assay kit in above assay.
(§3) C2C12 cells and RPMI 1640 medium were obtained from ATCC (Manassas, Va.) and Bovine Aortic endothelial Cells (BAOEC) and epithelial defined growth medium were purchased from Genlantis (San Deigo, Calif.). HyClone Fetal Bovine Serum was obtained from GE healthcare life sciences (Logan, Utah). BMP6 and BMP9 were purchased from R&D System (R&D). Anti-P-SMAD 1/5/8 rabbit mAb and anti-rabbit IgG, HRP-Linked antibody were purchased from Cell Signaling Technology (Danvers, Mass.). BioFX Chemiluminescent Ultra-Sensitive HRP Microwell Substrate ECL Reagent was obtained from SurModics (Edina, Minn.). The compound plates and the white solid MB assay plates were from Greiner Bio-one (Monroe, N.C.).
(§4) Similarly as described in above HTRF cell-based assay, this assay was performed in 384 well plate format. C2C12 were grown in T225 flasks were sterilely washed with 1×PBS pre-starved with medium containing 0.1% FBS for 20 hours. Pre-starved cells were then plated in 384 well plate in the starvation medium (containing in 0.1% FBS). After 4 hours, compound dilutions in DMSO were added to the assay plate and incubated for 30 minutes. The assay plate was then added with BMP6 for C2C12 cells or BMP9 for BAOEC cells and incubated for 30 minutes.
(§5) Cells were fixed with 50 ul ice-cold methanol and incubated for 15 min after removing the supernatant. The methanol was removed and filled with 0.5% glutaraldehyde and incubated at room temperature for 15 min. The cells were washed in the plate washer with PBS and blocked with 2% BSA in PBS for 1 h at room temperature on the rotator. After removing the blocking reagent, the cells were incubated with the anti-p-SMAD1 antibody in 2% BSA in PBS for overnight at 4° C. on rotator. The cells were washed with PBS in the plate washer and incubated with HRP conjugated second antibody in 2% BSA in PBS for 1 hour at room temperature. After a cell wash with PBS, ECL detection reagent was added and the plate was read in the luminesce mode in the ViewLux plate reader.

ALK3 = ALK3 (Homo sapiens, UniProt P36894); assay: TR-FRET enzymatic ALK kinase assay, ALK3
Experimental: Briefly, the ALKs enzymatic assay was initiated by dispense 2.5 μl enzyme in 1× kinase reaction buffer. The assay plate was then added with compounds followed by incubation at room temperature for 10 minutes. Then 2.5 μl/well substrate was added.

ALK2 = biological target: T2, ALK2 (Mus musculus, UniProt P37172); assay: In-cell Western ALK2 assay (C2C12 cells, BMP6 as agonist); format: cell-based; conditions: read-out: BMP6 ICW
T2 construct: The C2C12 cell line was selected for the measurement of ALK2 activity using BMP6 as the agonist; host or cells: C2C12
T2 sequence (P37172 21-509): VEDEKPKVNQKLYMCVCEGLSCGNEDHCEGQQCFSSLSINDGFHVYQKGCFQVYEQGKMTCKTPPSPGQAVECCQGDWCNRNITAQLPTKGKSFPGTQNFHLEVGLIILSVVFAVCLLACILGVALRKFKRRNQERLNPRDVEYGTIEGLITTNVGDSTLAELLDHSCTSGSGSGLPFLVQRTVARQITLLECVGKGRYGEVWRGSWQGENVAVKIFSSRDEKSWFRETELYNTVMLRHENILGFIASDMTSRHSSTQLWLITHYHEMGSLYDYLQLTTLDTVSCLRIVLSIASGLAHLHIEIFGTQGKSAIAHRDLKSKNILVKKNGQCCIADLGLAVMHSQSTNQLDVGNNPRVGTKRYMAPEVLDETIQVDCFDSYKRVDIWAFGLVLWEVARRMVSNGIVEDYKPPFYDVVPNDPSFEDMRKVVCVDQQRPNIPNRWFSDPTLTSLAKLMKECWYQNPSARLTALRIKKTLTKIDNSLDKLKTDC
Text: as §1, §2
as §3, with “HyClone” for “C2C12 cells and RPMI 1640 medium were obtained from ATCC (Manassas, Va.) and Bovine Aortic endothelial Cells (BAOEC) and epithelial defined growth medium were purchased from Genlantis (San Deigo, Calif.). HyClone”
as §4, with “C2C12 were grown in T225 flasks were sterilely washed with 1×PBS pre-starved with medium containing 0.1% FBS for 20 hours.” left out
as §5, with “The” for “Cells were fixed with 50 ul ice-cold methanol and incubated for 15 min after removing the supernatant. The methanol was removed and filled with 0.5% glutaraldehyde and incubated at room temperature for 15 min. The”

ALK3, sequence (P36894 24-532): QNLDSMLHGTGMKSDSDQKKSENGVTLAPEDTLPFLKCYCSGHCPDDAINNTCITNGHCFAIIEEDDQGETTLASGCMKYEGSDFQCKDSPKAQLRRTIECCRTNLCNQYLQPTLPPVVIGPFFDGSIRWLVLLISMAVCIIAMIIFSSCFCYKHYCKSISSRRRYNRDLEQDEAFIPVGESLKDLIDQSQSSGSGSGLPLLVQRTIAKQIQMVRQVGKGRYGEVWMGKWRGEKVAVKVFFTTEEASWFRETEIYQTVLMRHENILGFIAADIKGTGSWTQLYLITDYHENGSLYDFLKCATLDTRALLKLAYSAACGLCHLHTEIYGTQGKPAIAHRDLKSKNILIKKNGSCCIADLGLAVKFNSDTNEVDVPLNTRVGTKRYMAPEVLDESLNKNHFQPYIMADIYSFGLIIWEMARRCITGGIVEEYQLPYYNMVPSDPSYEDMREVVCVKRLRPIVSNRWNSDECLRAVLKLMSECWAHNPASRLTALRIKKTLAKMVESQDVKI

For C[C@@H]1CNC[C@H](C)N1c1ccc(-c2cnc3c(-c4cccc([S+](=O)([O-])C5CC5)c4)cnn3c2)cc1 [Compound 111, 3-(3-(cyclopropylsulfonyl)phenyl)-6-(4-((2R,6S)-2,6-dimethylpiperazin-1-yl)phenyl)pyrazolo[1,5-a]pyrimidine], which IC50 (ALK1) is on record?
The IC50 was 1800 nM.

What about the IC50 (ALK3) of the same compound?
Its IC50 is 970 nM.

And the IC50 (ALK2)?
The IC50 was 180 nM and 170 nM.
